Experimental findings from paper PMC6044507 (ACS Omega, 2018) are described below.

Experiment [1] concerns the target T1, human GPR84 (Homo sapiens, UniProt Q9NQS5). The experiment is described as follows: cell-based. Format: cell-based. The conditions noted are these: for EC50: CHO cells expressing human GPR84; for EC50 / percent receptor activation at 10 μM, cAMP assay: forskolin 10 μM; for Emax: read-out: efficacy (Emax), cAMP assay; for percent receptor activation at 10 μM, cAMP assay: compound 10 μM. (Cyclic AMP is a second messenger, typically raised through Gs and lowered through Gi signalling.)
Target sequence in this assay (Q9NQS5 whole entry): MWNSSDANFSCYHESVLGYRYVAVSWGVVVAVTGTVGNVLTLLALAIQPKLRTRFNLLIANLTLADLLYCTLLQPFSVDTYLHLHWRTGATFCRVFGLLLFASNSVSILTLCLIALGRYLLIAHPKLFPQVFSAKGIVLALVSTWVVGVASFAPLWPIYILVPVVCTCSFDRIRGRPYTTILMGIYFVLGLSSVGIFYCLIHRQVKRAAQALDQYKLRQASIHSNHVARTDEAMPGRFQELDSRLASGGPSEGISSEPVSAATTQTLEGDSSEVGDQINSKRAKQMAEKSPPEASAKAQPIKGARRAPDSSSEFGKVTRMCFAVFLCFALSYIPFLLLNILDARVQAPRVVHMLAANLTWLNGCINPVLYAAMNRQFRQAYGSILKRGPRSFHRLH

Experiment [2] has as its target T1, human GPR84. Put plainly: cell-based. The conditions noted are these: EC50 ± SEM, β-arrestin assay, CHO cells expressing human GPR84.
Target sequence in this assay (Q9NQS5 whole entry): as above
Target sequence in this assay (P32121 whole entry partner): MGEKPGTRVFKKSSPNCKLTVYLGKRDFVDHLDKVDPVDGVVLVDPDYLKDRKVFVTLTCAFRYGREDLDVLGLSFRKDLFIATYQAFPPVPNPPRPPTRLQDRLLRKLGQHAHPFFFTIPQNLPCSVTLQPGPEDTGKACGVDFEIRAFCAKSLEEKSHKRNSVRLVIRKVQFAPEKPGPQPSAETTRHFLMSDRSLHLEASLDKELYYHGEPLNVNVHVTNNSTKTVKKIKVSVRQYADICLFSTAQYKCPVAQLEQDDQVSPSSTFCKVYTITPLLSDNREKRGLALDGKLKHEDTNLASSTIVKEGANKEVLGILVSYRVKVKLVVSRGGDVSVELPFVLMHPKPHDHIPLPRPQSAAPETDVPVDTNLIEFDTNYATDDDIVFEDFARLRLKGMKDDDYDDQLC

In turn, `Cc1ccccc1CCNc1cc(=O)[nH]c(=O)[nH]1` [Compound 56, 6-(o-Methylphenylethylamino)-2,4(1H,3H)-pyrimidinedione] registered an EC50 in experiment [1] (EC50 ± SEM, cAMP assay) of 3200 ± 100 nM. Also, the Emax in experiment [1] was 96%.

As to `Oc1cc(NCCCCc2ccccc2)nc(O)n1` [Compound 44, 6-(4-Phenylbutylamino)-2,4(1H,3H)-pyrimidinedione], the midpoint of the response in experiment [1] (EC50 ± SEM, cAMP assay), the EC50, lay at 24 ± 10 nM. In experiment [1], the Emax is 108%. Turning to `COc1ccc(CCNc2cc(=O)[nH]c(=O)[nH]2)cc1` [Compound 50, 6-(p-Methoxyphenylethylamino)-2,4(1H,3H)-pyrimidinedione], the EC50 in experiment [2] was found to be 760 ± 370 nM; in experiment [1] (EC50 ± SEM, cAMP assay), 57 ± 21 nM. In experiment [1], the Emax was 111%. In the case of `COc1ccccc1N1CCN(c2cc(=O)[nH]c(=O)[nH]2)CC1` [Compound 69], a half-maximal response in experiment [1] (EC50 ± SEM, cAMP assay) (EC50) required 38 ± 7 nM. In experiment [1], the Emax is 53%. `O=c1cc(NCCc2ccc(F)cc2)[nH]c(=O)[nH]1` [Compound 46, 6-(p-Fluorophenylethylamino)-2,4(1H,3H)-pyrimidinedione]: the EC50 in experiment [2] was 2000 ± 800 nM; in experiment [1] (EC50 ± SEM, cAMP assay) it was 65 ± 14 nM. Also, the Emax in experiment [1] is 111%. As to `CCCCCCCCNc1c[nH]c(=O)[nH]c1=O` [Compound 39], in experiment [1], the “agonistic activity at GPR84 in cAMP assay, in words” value (“agonistic activity at GPR84” for short) is “completely inactive” and the “percent receptor activation at 10 μM, cAMP assay” value (shortened to “percent receptor activation”) is recorded as 6%. Turning to `CC(C)(C)CNc1cc(=O)[nH]c(=O)[nH]1` [Compound 16], in experiment [1], the “percent receptor activation” value came to 4%. For `O=c1cc(NCCc2cccs2)[nH]c(=O)[nH]1` [Compound 63, 6-(Thiophen-2-yl)ethylamino-2,4(1H,3H)-pyrimidinedione], the Emax in experiment [1] is 112%.

As to `CC(C)(C)CCNc1cc(=O)[nH]c(=O)[nH]1` [Compound 18], in experiment [1], the “percent receptor activation” value worked out at 18%. With `CCCCCCNc1[nH]c(=O)[nH]c(=O)c1Br` [Compound 72], the EC50 in experiment [1] (EC50 ± SEM, cAMP assay) is 7400 ± 1600 nM. Moreover, in experiment [1], the Emax was 123%. As to `CCNc1cc(=O)[nH]c(=O)[nH]1` [Compound 13], in experiment [1], the “agonistic activity at GPR84” value is “inactive” and the “percent receptor activation” value amounted to 15%.

In the case of `CC(C)CCNc1cc(=O)[nH]c(=O)[nH]1` [Compound 17], in experiment [1], the “percent receptor activation” value was determined as 14%. Regarding `CCCNc1cc(=O)[nH]c(=O)[nH]1` [Compound 14], in experiment [1], the “agonistic activity at GPR84” value is “inactive” and the “percent receptor activation” value is listed as −9%. Consider `O=c1cc(NCCc2ccccc2Cl)[nH]c(=O)[nH]1` [Compound 58, 6-(o-Chlorophenylethylamino)-2,4(1H,3H)-pyrimidinedione], for which the EC50 in experiment [2] came to 1300 ± 100 nM; in experiment [1] (EC50 ± SEM, cAMP assay), 100 ± 20 nM. In addition, in experiment [1], the Emax was 122%. For `O=c1cc(NCCc2ccc(Cl)cc2Cl)[nH]c(=O)[nH]1` [Compound 61, 6-(o,p-Dichlorophenethylamino)-2,4(1H,3H)-pyrimidinedione] the same measures were 82 ± 35 nM, 44 ± 4 nM and 113%. `O=c1cc(NCCCCCCO)[nH]c(=O)[nH]1` [Compound 27]: the “percent receptor activation” value in experiment [1] is 51 ± 8%. `O=c1cc(NCCCCCCCO)[nH]c(=O)[nH]1` [Compound 28, 6-(7-Hydroxyheptylamino)-2,4(1H,3H)-pyrimidinedione]: the EC50 stood at 2100 ± 600 nM in experiment [2] and 1980 nM in experiment [1] (EC50, cAMP assay). The Emax in experiment [1] is 105%. Turning to `CCCCCCCCN(C)c1cc(=O)[nH]c(=O)[nH]1` [Compound 38, 6-(N-Methyloctylamino)-2,4(1H,3H)-pyrimidinedione], in experiment [2], the EC50 stood at 640 ± 20 nM. The Emax in experiment [1] was 107%. In experiment [2], `O=c1cc(N2CCN(c3ccc(Cl)cc3)CC2)[nH]c(=O)[nH]1` [Compound 68, 6-[4-(p-Chlorophenyl)-1-piperazinyl]-2,4(1H,3H)-pyrimidinedione] returned an EC50 of 1800 ± 200 nM. Besides, the Emax in experiment [1] was 117%.

Regarding `CC(C)CNc1cc(=O)[nH]c(=O)[nH]1` [Compound 15], the “percent receptor activation” value in experiment [1] is 11%. `Cc1ccc(CCNc2cc(=O)[nH]c(=O)[nH]2)cc1` [Compound 45, 6-(p-Methylphenylethylamino)-2,4(1H,3H)-pyrimidinedione]: the EC50 came to 320 ± 150 nM in experiment [2] and 13 ± 1 nM in experiment [1] (EC50 ± SEM, cAMP assay). The Emax in experiment [1] is 114%. Turning to `CCCCC(CC)CNc1cc(=O)[nH]c(=O)[nH]1` (racemic) [Compound 24, N^6-(R,S)-(2-ethyl)hexyluracil], in experiment [1], the “agonistic activity at GPR84” value is “abolished activity” and the “percent receptor activation” value was found to be 14%.

As for `O=c1cc(NCCc2cccc(Cl)c2)[nH]c(=O)[nH]1` [Compound 54, 6-(m-Chlorophenylethylamino)-2,4(1H,3H)-pyrimidinedione], the half-maximal effective concentration (EC50) in experiment [2] came to 300 ± 100 nM; in experiment [1] (EC50 ± SEM, cAMP assay), 130 ± 10 nM. Besides, in experiment [1], the Emax was 125%. Turning to `O=c1cc(N2CCN(Cc3cccc4ccccc34)CC2)[nH]c(=O)[nH]1` [Compound 71, 6-[4-(1-Naphthylmethyl)-1-piperazinyl]-2,4(1H,3H)-pyrimidinedione], in experiment [1] (EC50 ± SEM, cAMP assay), the EC50 turned out to be 150 ± 40 nM. Also, the Emax in experiment [1] is 137%.

Turning to `O=c1cc(NCCc2cccc(Br)c2)[nH]c(=O)[nH]1` [Compound 55, 6-(m-Bromophenylethylamino)-2,4(1H,3H)-pyrimidinedione], the EC50 in experiment [2] came to 190 ± 30 nM; in experiment [1] (EC50 ± SEM, cAMP assay) it was 64 ± 5 nM. The Emax in experiment [1] was 147%. For `O=c1cc(NCCOc2ccccc2)[nH]c(=O)[nH]1` [Compound 64, 6-(2-Phenoxyethylamino)-2,4(1H,3H)-pyrimidinedione] the same measures were 730 ± 130 nM, 100 ± 50 nM and 113%. In experiment [1] (EC50 ± SEM, cAMP assay), `O=c1cc(NCCCc2ccccc2)[nH]c(=O)[nH]1` [Compound 43, 6-(3-Phenylpropylamino)-2,4(1H,3H)-pyrimidinedione] came in with an EC50 of 1700 ± 600 nM. Besides, the Emax in experiment [1] was 120%. In the case of `O=c1cc(NCc2ccccc2)[nH]c(=O)[nH]1` [Compound 40], in experiment [1], the “agonistic activity at GPR84” value is “inactive” and the “percent receptor activation” value came out at 12%.

Take `COc1ccccc1N1CCN(CCCNc2cc(=O)n(C)c(=O)n2C)CC1` [urapidil, reference compound]: the “percent receptor activation” value in experiment [1] is recorded as 7%. As to `CCCCCCNc1[nH]c(=O)[nH]c(=O)c1N=O` [Compound 76], a half-maximal effect in experiment [1] (EC50 ± SEM, cAMP assay) (EC50) was put at 7700 ± 500 nM. In experiment [1], the Emax is 120%. On to `O=Nc1c(NCCc2ccccc2)[nH]c(=O)[nH]c1=O` [Compound 79], for which, in experiment [1], the “percent receptor activation” value is 32%. Consider `O=C(O)CCCCCNc1cc(=O)[nH]c(=O)[nH]1` [Compound 29], for which, in experiment [1], the “percent receptor activation” value is given as 25%.

Take `O=c1cc(NCCCOc2ccccc2)[nH]c(=O)[nH]1` [Compound 65, 6-(3-Phenoxypropylamino)-2,4(1H,3H)-pyrimidinedione]: in experiment [1] (EC50 ± SEM, cAMP assay), the EC50 is 73 ± 5 nM. The Emax in experiment [1] was 107%. For the compound `O=c1cc(NCCc2ccccc2Br)[nH]c(=O)[nH]1` [Compound 59], the “percent receptor activation” value in experiment [1] is 19%. Consider `CSCCCNc1cc(=O)[nH]c(=O)[nH]1` [Compound 26, N^6-Methylthiopropyluracil], for which the EC50 in experiment [1] (EC50 ± SEM, cAMP assay) was determined as 23000 ± 3000 nM. Also, the Emax in experiment [1] was 100%. Regarding `O=C(O)CCCCCCCNc1cc(=O)[nH]c(=O)[nH]1` [Compound 30], in experiment [1], the “percent receptor activation” value is listed as 13%.

`CCCCCCCCCNc1cc(=O)n(C)c(=O)[nH]1` [Compound 32, 6-Nonylamino-3-methyl-2,4(1H,3H)-pyrimidinedione]: the EC50 in experiment [1] (EC50 ± SEM, cAMP assay) was determined as 2000 ± 500 nM. For the same compound, the Emax in experiment [1] is 74%. Turning to `O=c1[nH]c(NCCCc2ccccc2)c(Br)c(=O)[nH]1` [Compound 75], in experiment [1], the “percent receptor activation” value amounted to 15%.

Regarding `CCCCCCCCCCNc1cc(=O)[nH]c(=O)[nH]1` [Compound 23, 6-Decylamino-2,4(1H,3H)-pyrimidinedione], the Emax in experiment [1] was 109%. As for `O=c1cc(NCc2cccc3ccccc23)[nH]c(=O)[nH]1` [Compound 41], in experiment [1], the “agonistic activity at GPR84” value was “inactive” and the “percent receptor activation” value is recorded as 23%. Take `CCCCCCCNc1[nH]c(=O)[nH]c(=O)c1N=O` [Compound 77, 6-Heptylamino-5-nitroso-2,4(1H,3H)-pyrimidinedione]: the response in experiment [1] (EC50 ± SEM, cAMP assay) was half-maximal at 500 ± 50 nM (EC50). The Emax in experiment [1] is 104%. Turning to `CCCCCCCCNc1cc(=O)n(C)c(=O)n1C` [Compound 36], in experiment [1], the “agonistic activity at GPR84” value is recorded as “virtually abolished potency” and the “percent receptor activation” value was 25%. In experiment [1] (EC50 ± SEM, cAMP assay), `CCCCCCN(C)c1cc(=O)[nH]c(=O)[nH]1` [Compound 37, 6-(N-Methylhexylamino)-2,4(1H,3H)-pyrimidinedione] gave an EC50 of 110 ± 40 nM. For the same compound, the Emax in experiment [1] is 106%. For `CCCCCCCNc1cc(=O)[nH]c(=O)[nH]1` [Compound 21, 6-Heptylamino-2,4(1H,3H)-pyrimidinedione] the same measures were 12 ± 6 nM and 113%. Consider `CCCCCCCCNc1cc(=O)[nH]c(=O)n1C` [Compound 35], for which, in experiment [1], the “percent receptor activation” value was 34%. Consider `O=c1cc(NCCc2cccc(F)c2)[nH]c(=O)[nH]1` [Compound 53, 6-(m-Fluorophenylethylamino)-2,4(1H,3H)-pyrimidinedione], for which the Emax in experiment [1] is 136%. Consider `O=c1cc(N2CCC(c3ccccc3)CC2)[nH]c(=O)[nH]1` [Compound 66], for which, in experiment [1], the “agonistic activity at GPR84” value is “inactive” and the “percent receptor activation” value came to 13%. Consider `CCCCCCNc1cc(=O)[nH]c(=O)n1C` [Compound 34], for which the “percent receptor activation” value in experiment [1] came out at 32%. `CCCCCCCCNc1[nH]c(=O)[nH]c(=O)c1Br` [Compound 73, 5-Bromo-6-octylamino-2,4(1H,3H)-pyrimidinedione] yielded an EC50 in experiment [1] (EC50 ± SEM, cAMP assay) of 2000 ± 600 nM. Further, in experiment [1], the Emax was 114%. For `CC(C)CCCCCNc1cc(=O)[nH]c(=O)[nH]1` [Compound 25] the same measures were 5900 ± 2600 nM and 99%.

A word on the EC50: it is the concentration giving half of the maximal effect. A word on the Emax: it is the greatest response seen or fitted, relative to the assay's reference.
